Key:
[1] = tested on: common mosquito (Culex pipens pallens) females; experiment: Mortality of common mosquito females, oil solution sprayed in a chamber (Test Example 2); type: in vivo; conditions: 0.7 ml of 0.00625% oil solution sprayed in 70 cm cubic chamber; ten females; recovered after ten minutes; dead counted after 24 hours; 2 repetition
Protocol: Each 0.00625 parts of the present compounds (1) to (3) produced in the above production Examples was dissolved in 10 parts of dichloromethane, and the solution was mixed with 89.99375 parts of deodorized kerosene to prepare a 0.00625% oil solution.
Ten common mosquito (Culex pipens pallens) females were released in a cubic chamber having each side of 70 cm, and 0.7 ml of the 0.00625% oil solution of the present compound prepared above was sprayed into the chamber through a small window on a side of the chamber using a spraying gun at a pressure of 8.8×10^4 Pa. After ten minutes, common mosquito females were recovered in a clean cup (bottom diameter 8.2 cm) with a cotton wool containing a 0.5% aqueous sugar, and allowed to stand until the next day. After 24 hours, the number of dead mosquitoes was counted, and a mortality was calculated (2 repetition).
In addition, the same as above test was performed using, in place of present compounds (1) to (3), 4-methoxymethyl-2,3,5,6-tetrafluorobenzyl (1R)-trans-3-(2-cyano-1-propenyl)-2,2-dimethylcyclopropanecarboxylate (ratio of isomers regarding double bond: Z/E=about 2/1; compound described in U.S. Pat. No. 6,908,945B2; hereinafter refereed to as Comparative Compound (4)) as a control.

[2] = tested on: Adult houseflies; experiment: Knock-down of adult houseflies, oil solution sprayed in a chamber (Test Example 1); type: in vivo, housefly; conditions: 0.7 ml of 0.025% oil solution sprayed in 70 cm cubic chamber; 10 adult houseflies; counted two minutes after spraying; 2 repetitions
Protocol: Each 0.025 part of the present compounds (1) to (3) produced in the above Production Examples was dissolved in 10 parts of dichloromethane, and the solution was mixed with 89.975 parts of deodorized kerosene to prepare a 0.025% oil solution.
Adult houseflies (5 males and 5 females, total 10) were released in a cubic chamber having each side of 70 cm, and 0.7 ml of the 0.025% oil solution of the present compound prepared above was sprayed into the chamber through a small window on a side of the chamber using a spraying gun at a pressure of 8.8×10^4 Pa. Two minutes after spraying, the number of knocked-down houseflies was counted (2 repetitions).
In addition, the same as above test was performed by using, in place of the present compounds (1) to (3), 4-methyl-2,3,5,6-tetrafluorobenzyl (1R)-trans-3-(2-methyl-1-propenyl)-2,2-dimethylcyclopropanecarboxylate represented by the formula: […]

| Compound | Mortality (%) [1] | Number of knock-down houseflies [2] |
| --- | --- | --- |
| CC(C#N)=C[C@@H]1[C@@H](C(=O)OCc2c(F)c(F)c(C)c(F)c2F)C1(C)C (racemic) [Present compound (1), 4-methyl-2,3,5,6-tetrafluorobenzyl (1R)-trans-3-(2-cyano-1-propenyl)-2,2-dimethylcyclopropanecarboxylate] | 95% | 10 |
| COc1c(F)c(F)c(COC(=O)[C@@H]2[C@@H](C=C(C)C#N)C2(C)C)c(F)c1F (racemic) [Present compound (2), 4-methoxy-2,3,5,6-tetrafluorobenzyl (1R) trans-3-(2-cyano-1-propenyl)-2,2-dimethylcyclopropanecarboxylate] | 100% | 10 |
| C=CCc1c(F)c(F)c(COC(=O)[C@@H]2[C@@H](C=C(C)C#N)C2(C)C)c(F)c1F (racemic) [Present compound (3), 4-allyl-2,3,5,6-tetrafluorobenzyl (1R)-trans-3-(2-cyano-1-propenyl)-2,2-dimethylcyclopropanecarboxylate] | 70% | 9 |
| CC(C)=C[C@@H]1[C@@H](C(=O)OCc2c(F)c(F)c(C)c(F)c2F)C1(C)C [Comparative compound (1), 4-methyl-2,3,5,6-tetrafluorobenzyl (1R)-trans-3-(2-methyl-1-propenyl)-2,2-dimethylcyclopropanecarboxylate, reference compound] |  | 0 |
| COc1c(F)c(F)c(COC(=O)[C@@H]2[C@@H](C=C(C)C)C2(C)C)c(F)c1F [Comparative compound (2), 4-methoxy-2,3,5,6-tetrafluorobenzyl (1R)-trans-3-(2-methyl-1-propenyl)-2,2-dimethylcyclopropanecarboxylate, reference compound] |  | 0 |
| C=CCc1c(F)c(F)c(COC(=O)[C@@H]2[C@@H](C=C(C)C)C2(C)C)c(F)c1F [Comparative compound (3), 4-allyl-2,3,5,6-tetrafluorobenzyl (1R)-trans-3-(2-methyl-1-propenyl)-2,2-dimethylcyclopropanecarboxylate, reference compound] |  | 0 |
| COCc1c(F)c(F)c(COC(=O)[C@@H]2[C@@H](C=C(C)C#N)C2(C)C)c(F)c1F [Comparative compound (4), 4-methoxymethyl-2,3,5,6-tetrafluorobenzyl (1R)-trans-3-(2-cyano-1-propenyl)-2,2-dimethylcyclopropanecarboxylate, reference compound] | 16% |  |

Source: patent US8367724B2, “Ester compound and use thereof” (Sumitomo Chemical Company, Limited, priority 2007, dated 2013)
